{"source": "patent US20230036339A1", "about": "“BIOACTIVE IMPLANTS FOR DRUG DELIVERY” (The Queen's University of Belfast, priority 2019, published 2023)", "key": {"[1]": {"conditions": "cited from earlier work"}, "[2]": {"test": "Thermogravimetric analysis (TGA), thermal stability", "assay_type": "physicochemical", "conditions": "10° C. min-1, reported at 5% weight loss", "experimental": "TGA was utilised to determine thermal stability. Initially the starting materials (LIDO, MA, SA and GMS) were analysed to deduce the degradation temperature. The excipients were exposed to a heating ramp from room temperature (circa 20° C.) to 500° C., at 10° C. min-1.\nLIDO and the relevant lipids were weighed and heated at 80° C. until molten. The samples were given 24 hours to cool/solidify before they were ground using a mortar and pestle for 2 min. The resultant systems were heated at 10° C. min-1 from room temperature to 350° C. All TGA experiments were conducted in triplicates, using Perkin-Elmer Aluminum Non-Hermetic DSC pans. Nitrogen (60 mL min-1) was used as the purge gas. The degradation temperature was reported at 5% weight loss. Analysis was performed using TA Universal analysis software.\nConsequently, TGA is an essential technique used to inform the suitability of these materials and processing conditions of HME. The thermal degradation temperature was reported at 5% weight loss."}, "[3]": {"test": "Assessment of drug loading capacity of EVA"}, "[4]": {"test": "In vivo sheep study, pharmacokinetics of lidocaine and myristic acid", "conditions": "FIG. 25"}, "[5]": {"test": "Lidocaine and myristic acid remaining post-implantation", "assay_type": "in vivo", "conditions": "individual sheep", "experimental": "The components of the outer coating were dissolved by sonication in dicholoromethane and the volume was then made up to 50 ml. Two ml of this solution was dried for 1 h at 50° C. and reconstituted in 100 ml methanol. The methanolic solutions were appropriately diluted in the mobile phase for assay by LCMS-MS."}}, "note": "Values joined by “and” are separate entries in the source; they are usually repeats but may differ in a detail not shown here. Identical values can stand only once. Marks after values point to notes of the source that are not given here.", "data": [{"smiles": "CCCCCCCCCCCCCCCCCC(=O)OCC(O)CO", "note": "(centres unmarked) [Glycerol Monostearate]", "values": [{"measurement": "LogP", "setting": "[1]", "value": 5.97}, {"measurement": "Mean Degradation Temperature ± SD", "setting": "[2]; listed as GMS", "value": "197.34 °C and 197.34 ± 8.23 °C"}]}, {"smiles": "CCN(CC)CC(=O)Nc1c(C)cccc1C", "note": "[Lidocaine, 2-(diethyl-amino)-N-(2,6-dimethylpheny)-acetamide, reference compound]", "values": [{"measurement": "Lidocaine concentration at which it crystalises out", "setting": "[3]; in EVA 33%", "value": "> 10", "unit": "%"}, {"measurement": "Lidocaine concentration over which it crystallises out", "setting": "[3]; solvent cast EVA film or EVA polymer implant", "value": "9-10 % w/w"}, {"measurement": "Mean Degradation Temperature ± SD", "setting": "[2]; listed as LIDO", "value": "164.40 ± 1.30", "unit": "°C"}, {"measurement": "Mean Degradation Temperature ± SD", "setting": "[2]; listed as lidocaine", "value": 164.40, "unit": "°C"}]}, {"smiles": "CCCCCCCCCCCCCC(=O)O", "note": "[Myristic Acid]", "values": [{"measurement": "Concentration in peritoneal fluid compared to plasma", "setting": "[4]", "value": "higher concentrations again observed in peritoneal fluid"}, {"measurement": "LogP", "setting": "[1]", "value": 5.37}, {"measurement": "Mean Degradation Temperature ± SD", "setting": "[2]; listed as MA", "value": "177.55 °C and 177.55 ± 0.82 °C"}, {"measurement": "Myristic acid % Remaining", "setting": "[5]; in co-extrudate after 3 days implantation, mean ± SD n=3", "value": "10.04 ± 1.82% and 16.91 ± 6.77% and 11.21 ± 0.98%"}, {"measurement": "Myristic acid % Remaining", "setting": "[5]; in co-extrudate after 7 days implantation, listed as Myristic acid", "value": "<4.00* %"}, {"measurement": "Myristic acid % Remaining", "setting": "[5]; in co-extrudate after 7 days implantation, listed as myristic acid", "value": "too low to quantify"}]}, {"smiles": "CCCCCCCCCCCCCCCCCC(=O)O", "note": "[Stearic Acid]", "values": [{"measurement": "LogP", "setting": "[1]", "value": 7.15}, {"measurement": "Mean Degradation Temperature ± SD", "setting": "[2]; listed as SA", "value": "201.75 °C and 201.75 ± 4.12 °C"}]}]}
